Measurements: patent US10894807B2 (Siemens Medical Solutions USA, Inc., priority 2011, dated 2021)

Biological target: human PSMA (Homo sapiens (Human), UniProt Q04609)
Assay: Enzymatic assay for in vitro evaluation of PSMA inhibitors (fluorescent assay of PSMA activity, NAAG substrate, OPA detection of glutamate)
Format: biochemical

human PSMA, sequence (Q04609 whole entry): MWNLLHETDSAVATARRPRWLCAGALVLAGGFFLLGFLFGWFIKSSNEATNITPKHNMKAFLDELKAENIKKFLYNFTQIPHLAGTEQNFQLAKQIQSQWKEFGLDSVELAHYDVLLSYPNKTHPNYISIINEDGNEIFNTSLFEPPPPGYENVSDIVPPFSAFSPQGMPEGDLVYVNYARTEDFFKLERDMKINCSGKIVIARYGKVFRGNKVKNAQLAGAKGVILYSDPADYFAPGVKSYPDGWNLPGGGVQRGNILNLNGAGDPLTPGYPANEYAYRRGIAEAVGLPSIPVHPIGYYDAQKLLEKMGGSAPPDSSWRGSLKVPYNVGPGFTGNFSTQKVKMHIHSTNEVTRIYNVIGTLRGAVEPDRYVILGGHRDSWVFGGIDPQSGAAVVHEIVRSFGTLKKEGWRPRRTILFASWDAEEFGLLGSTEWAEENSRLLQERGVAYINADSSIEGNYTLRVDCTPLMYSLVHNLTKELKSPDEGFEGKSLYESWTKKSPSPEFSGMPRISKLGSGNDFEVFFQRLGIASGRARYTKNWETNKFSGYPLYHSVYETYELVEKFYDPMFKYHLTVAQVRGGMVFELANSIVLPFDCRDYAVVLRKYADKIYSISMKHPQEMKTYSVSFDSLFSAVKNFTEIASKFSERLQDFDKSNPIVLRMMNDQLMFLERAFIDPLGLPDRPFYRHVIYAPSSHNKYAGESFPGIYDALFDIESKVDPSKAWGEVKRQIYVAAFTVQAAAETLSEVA

Row | Compound | Ki | PSMA Blkg % (10 μM) (compound at 10 μM) | further results
1 | O=C(O)CC[C@H](NC(=O)N[C@@H](CCCCNC(=O)[C@H]1O[C@@H](CNC(=O)CCc2ccc(-n3cc(CCCF)nn3)cc2)[C@H](O)[C@@H](O)[C@H]1O)C(=O)O)C(=O)O [P194, (S)-2-(3-((S)-1-Carboxy-5-((2S,3R,4R,5R,6S)-6-((3-(4-(4-(3-fluoropropyl)-1H-1,2,3-triazol-1-yl)phenyl)propanamido)methyl)-3,4,5-trihydroxytetrahydro-2H-pyran-2-carboxamido)pentyl)ureido)pentanedioic Acid] | 69 nM | – | PSMA Blkg % (10 μM): 96%
2 | O=C(O)CC[C@H](NC(=O)NC(Cc1ccc(OCCn2cc(CCCF)nn2)cc1)C(=O)O)C(=O)O (stereo partly drawn) [P202, (2S)-2-(3-(1-Carboxy-2-(4-(2-(4-(3-fluoropropyl)-1H-1,2,3-triazol-1-yl)ethoxy)phenyl)ethyl)ureido)pentanedioic Acid] | 94 nM | – | PSMA Blkg % (10 μM): 97%
3 | O=C(O)CN(CC(=O)O)CC(=O)N[C@H](CSCc1ccccc1)C(=O)O [P028, (S)-2,2′-((2-((2-(Benzylthio)-1-carboxyethyl)amino)-2-oxoethyl)azanediyl)diacetic Acid] | – | 24% | –
4 | O=C(O)CC[C@H](NC(=O)C[C@@H](NC(=O)CCNC(=O)Cn1cc(CCCF)nn1)C(=O)O)C(=O)O [P243, (S)-2-((R)-3-Carboxy-3-(3-(2-(4-(3-fluoropropyl)-1H-1,2,3-triazol-1-yl)acetamido)propanamido)-propanamido)pentanedioic Acid] | – | – | PSMA Blkg % (1.0 μM): 5%
5 | CCC1C(=O)N([C@@H](CCCCNC(=O)OCc2ccccc2)C(=O)O)C(=O)N([C@@H](CCC(=O)O)C(=O)O)C1=O (stereo partly drawn) [P078, (2S)-2-(3-((S)-5-(Benzyloxycarbonylamino)-1-carboxypentyl)-5-ethyl-2,4,6-trioxotetrahydropyrimidin-1(2H)-yl)pentanedioic Acid] | > 312 nM | – | –
6 | CN(C(=O)N[C@@H](CCC(=O)O)C(=O)O)[C@@H](CCCCNC(=O)CN=[N+]=[N-])C(=O)O [P034, (S)-2-(3-((S)-5-(2-Azidoacetamido)-1-carboxypentyl)-3-methylureido)pentanedioic Acid] | – | 70% | –
7 | O=C(O)CC[C@H](NC(=O)NCCCCCNC(=O)c1cc(C(=O)NCCCCCNC(=O)N[C@@H](CCC(=O)O)C(=O)O)cc(-n2cc(CCCF)nn2)c1)C(=O)O [P290, (2S,2′S)-2,2′-((((((5-(4-(3-Fluoropropyl)-1H-1,2,3-triazol-1-yl)isophthaloyl)bis(azanediyl))bis(pentane-5,1-diyl))bis(azanediyl))bis(carbonyl))-bis(azanediyl))dipentanedioic Acid] | – | – | PSMA Blkg % (1.0 μM): 0%
8 | O=C(O)CC[C@H](NC(=O)N[C@@H](Cc1ccc(NC(=O)COCCOCCOCCn2cc(CCCF)nn2)cc1)C(=O)O)C(=O)O [P216] | 21.9 nM | – | PSMA Blkg % (10 μM): 98%
9 | [N-]=[N+]=NCCCC(=O)N[C@@H](CC(=O)N[C@@H](CCC(=O)O)C(=O)O)C(=O)O [P023, (S)-2-((S)-3-(4-Azidobutanamido)-3-carboxypropanamido)pentanedioic Acid] | – | 24% | –
10 | CN(C(=O)[C@H](CC(=O)O)NC(=O)CCc1ccc(-n2cc(CCCF)nn2)cc1)[C@@H](CCC(=O)O)C(=O)O [P170, (S)-2-((S)-3-Carboxy-2-(3-(4-(4-(3-fluoropropyl)-1H-1,2,3-triazol-1-yl)phenyl)propanamido)-N-methylpropanamido)pentanedioic Acid] | – | 58% | –
11 | CN(C(=S)N[C@@H](CCC(=O)O)C(=O)O)[C@@H](CCCCNC(=O)OCc1ccccc1)C(=O)O [P143, (9S,13S)-10-Methyl-3-oxo-1-phenyl-1-thioxo-2-oxa-4,10,12-triazapentadecane-9,13,15-tricarboxylic Acid] | – | 15% | –
12 | 2-(4-(2-(((Benzyloxy)carbonyl)amino)-3-methoxy-3-oxopropyl)-1H-1,2,3-triazol-1-yl)pentanedioic Acid [P124] | – | 10% | –
13 | O=C(O)CC[C@H](NC(=O)N(O)[C@@H](CCCCNC(=O)Cn1cc(CCCF)nn1)C(=O)O)C(=O)O [P166, (S)-2-(3-((S)-1-Carboxy-5-(2-(4-(3-fluoropropyl)-1H-1,2,3-triazol-1-yl)acetamido)pentyl)-3-hydroxyureido)pentanedioic Acid] | > 375 nM | 87% | –
14 | O=C(O)CC[C@H](NC(=O)N[C@@H](Cc1ccc(NC(=O)c2ccc(-n3cc(CCCF)nn3)cc2)cc1)C(=O)O)C(=O)O [P215, (S)-2-(3-((S)-1-Carboxy-2-(4-(4-(4-(3-fluoropropyl)-1H-1,2,3-triazol-1-yl)-benzamido)-phenyl)ethyl)ureido)pentanedioic Acid] | 2.2 nM | – | PSMA Blkg % (10 μM): 99%
15 | O=C(O)CC[C@H](NC(=O)N[C@@H](CCCCNc1nc(-c2cc3ccccc3s2)cs1)C(=O)O)C(=O)O [P234, (S)-2-(3-((S)-5-(4-(Benzo[b]thiophen-2-yl)thiazol-2-ylamino)-1-carboxypentyl)ureido) pentanedioic Acid] | – | – | PSMA Blkg % (1.0 μM): 86%
16 | O=C(O)CCC(NC(=O)N[C@@H](Cc1ccc(NC(=O)CCC(CCC(=O)Nc2ccc(CC(NC(=O)N[C@@H](CCC(=O)O)C(=O)O)C(=O)O)cc2)(CCC(=O)Nc2ccc(C[C@H](NC(=O)NC(CCC(=O)O)C(=O)O)C(=O)O)cc2)NC(=O)CCCCn2cc(CCCF)nn2)cc1)C(=O)O)C(=O)O (stereo partly drawn) [P285, (2S,2′S)-2,2′-(((((1S,1′S)-(((4-(3-((4-((S)-2-Carboxy-2-(3-((S)-1,3-dicarboxypropyl)ureido)ethyl)phenyl)amino)-3-oxopropyl)-4-(5-(4-(3-fluoropropyl)-1H-1,2,3-triazol-1-yl)pentanamido)heptanedioyl)bis(azanediyl))bis(4,1-phenylene))bis(1-carboxyethane-2,1-diyl))bis(azanediyl))bis(carbonyl))bis(azanediyl))dipentanedioic Acid] | 0.5 nM | – | –
17 | O=C(O)CC[C@H](NC(=O)C[C@@H](NC(=O)CCc1ccc(-n2cc(CCCF)nn2)cc1)C(=O)O)C(=O)O [P220, (S)-2-((R)-3-Carboxy-3-(3-(4-(4-(3-fluoropropyl)-1H-1,2,3-triazol-1-yl)phenyl)-propanamido)-propanamido)pentanedioic Acid] | – | – | PSMA Blkg % (1.0 μM): 34%
18 | O=C(O)CC[C@H](NC(=O)N(O)CCCc1ccccc1)C(=O)O [P038, (S)-2-(3-Hydroxy-3-(3-phenylpropyl)ureido)pentanedioic Acid] | – | 2% | –
19 | O=C(O)CC[C@@H](C(=O)O)N1C(=O)CC(=O)N([C@@H](CCCCNC(=O)c2ccc(-n3cc(CCCF)nn3)cc2)C(=O)O)C1=O [P064, (S)-2-(3-((S)-1-Carboxy-5-(4-(4-(3-fluoropropyl)-1H-1,2,3-triazol-1-yl)benzamido)pentyl)-2,4,6-trioxotetrahydropyrimidin-1(2H)-yl)pentanedioic Acid] | – | 46% | –
20 | O=C(O)CC[C@H](NC(=O)N[C@@H](CCCCNC(=O)Cn1cc(CCCF)nn1)C(=O)O)C(=O)O [P005, (S)-2-(3-((S)-1-Carboxy-5-(2-(4-(3-fluoropropyl)-1H-1,2,3-triazol-1-yl)acetamido)pentyl)ureido)pentanedioic Acid] | 40.7 nM | 89% | –
21 | O=C(O)CC[C@H](NC(=O)N(O)[C@@H](CCCNC(=O)OCc1ccccc1)C(=O)O)C(=O)O [P139, (8S,12S)-9-Hydroxy-3,10-dioxo-1-phenyl-2-oxa-4,9,11-triazatetradecane-8,12,14-tricarboxylic Acid] | – | 16% | –
22 | O=C(O)Cn1cc(C[C@H](NC(=O)N[C@@H](CCCCNC(=O)OCc2ccccc2)C(=O)O)C(=O)O)nn1 [P192, (9S,13S)-9-Carboxy-13-((1-(carboxymethyl)-1H-1,2,3-triazol-4-yl)methyl)-3,11-dioxo-1-phenyl-2-oxa-4,10,12-triazatetradecan-14-oic Acid] | – | – | PSMA Blkg % (10 μM): 29%
23 | O=C(O)CC[C@@H](C(=O)O)N1C(=O)NC(=O)/C(=C(/O)CCC(NC(=O)OCC2c3ccccc3-c3ccccc32)C(=O)O)C1=O (stereo partly shown) [P117] | – | 18% | –
24 | O=C(O)CCC(NC(=O)C[C@@H](NC(=O)CCNC(=O)c1cc(C(=O)NCCC(=O)N[C@H](CC(=O)NC(CCC(=O)O)C(=O)O)C(=O)O)cc(-n2cc(CCCF)nn2)c1)C(=O)O)C(=O)O (stereo partly drawn) [P252, (2S,2′S)-2,2′-(((3R,3′R)-3,3′-((3,3′-((5-(4-(3-Fluoropropyl)-1H-1,2,3-triazol-1-yl)isophthaloyl)bis(azanediyl))bis(propanoyl))bis(azanediyl))bis(3-carboxypropanoyl))bis(azanediyl))dipentanedioic Acid] | 94 nM | – | PSMA Blkg % (1.0 μM): 59%
25 | O=C(O)CC[C@H](NC(=O)N[C@@H](CCCCNC(=O)N1CCN(C(=O)CCC(CCC(=O)N2CCN(C(=O)NCCCC[C@H](NC(=O)N[C@@H](CCC(=O)O)C(=O)O)C(=O)O)CC2)NC(=O)c2ccc(-n3cc(CCCF)nn3)cc2)CC1)C(=O)O)C(=O)O (stereo in doubt) [P281, (2S,2′S)-2,2′-(((((1S,1′S)-((4,4′-(4-(4-(4-(3-Fluoropropyl)-1H-1,2,3-triazol-1-yl)benzamido)heptanedioyl)bis(piperazine-1,1′-carbonyl))bis(azanediyl))bis(1-carboxypentane-5,1diyl))-bis(azanediyl))-bis(carbonyl))-bis(azanediyl))-dipentanedioic Acid] | 1.3 nM | – | –
26 | CCC1(CC)C(=O)N([C@@H](CCCCNC(=O)c2ccc(F)nc2)C(=O)O)C(=O)N([C@@H](CCC(=O)O)C(=O)O)C1=O [P113, (S)-2-(3-((S)-1-Carboxy-5-(6-fluoronicotinamido)pentyl)-5,5-diethyl-2,4,6-trioxotetrahydropyrimidin-1(2H)-yl)pentanedioic Acid] | – | 11% | –
27 | O=C(O)CC[C@H](NC(=O)N[C@@H](CCCCNc1nc(-c2cccc([N+](=O)[O-])c2)cs1)C(=O)O)C(=O)O [P233, (S)-2-(3-((S)-1-Carboxy-5-(4-(3-nitrophenyl)thiazol-2-ylamino)pentyl)ureido)pentanedioic Acid] | – | – | PSMA Blkg % (1.0 μM): 96%
